Assays:
[1] = system: E. hermanii ATCC 33650; test: MIC in Nutrient Broth No. 2; assay type: cell-based, Escherichia hermanii; details: Nutrient Broth No. 2
Method: (§1) Bacteria species as indicated in Table 1 were incubated for approximately 24 hours at 37° C.
(§2) The tests were repeated with the addition of inducers. Methyl glycoside was the main inducer used, but other suitable inducers include isopropyl-β-D-thiogalactopyranoside, p-nitrophenyl-α-L-arabinopyranoside and p-nitrophenyl-β-D-xylopyranoside. Concentration of inducer in all cases was 100 μg/ml.

[2] = system: Kleb. pneumoniae ATCC 10031; test: MIC in Nutrient Broth No. 2; assay type: cell-based, Klebsiella pneumoniae; details: Nutrient Broth No. 2
Method: as §1, §2

[3] = system: Aeromonas hydrophila OCC 778; test: MIC in Nutrient Broth No. 2; assay type: cell-based; details: Nutrient Broth No. 2
Method: as §1, §2

[4] = system: Bacillus cereus ATCC 14579; test: MIC in Nutrient Broth No. 2; assay type: cell-based; details: Nutrient Broth No. 2
Method: as §1, §2

[5] = system: Bacillus subtilis NCTC 10073; test: MIC in Nutrient Broth No. 2; assay type: cell-based; details: Nutrient Broth No. 2
Method: as §1, §2

[6] = system: Citrobacter freundii OCC 851; test: MIC in Nutrient Broth No. 2; assay type: cell-based; details: Nutrient Broth No. 2
Method: as §1, §2

[7] = system: Enterobacter aerogenes ATCC 13048; test: MIC in Nutrient Broth No. 2; assay type: cell-based; details: Nutrient Broth No. 2
Method: as §1, §2

[8] = system: Enterococcus faecalis ATCC 29212; test: MIC in Nutrient Broth No. 2; assay type: cell-based; details: Nutrient Broth No. 2
Method: as §1, §2

[9] = system: Enterococcus faecium ATCC 19434; test: MIC in Nutrient Broth No. 2; assay type: cell-based; details: Nutrient Broth No. 2
Method: as §1, §2

[10] = system: Escherichia coli; test: MIC in Nutrient Broth No. 2; assay type: cell-based; details: 8 strains, Nutrient Broth No. 2
Method: as §1, §2

[11] = system: Hafnia alvei ATCC 13337; test: MIC in Nutrient Broth No. 2; assay type: cell-based; details: Nutrient Broth No. 2
Method: as §1, §2

[12] = system: Proteus mirabilis ATCC 12453; test: MIC in Nutrient Broth No. 2; assay type: cell-based; details: Nutrient Broth No. 2
Method: as §1, §2

[13] = system: Proteus vulgaris OCC 195; test: MIC in Nutrient Broth No. 2; assay type: cell-based; details: Nutrient Broth No. 2
Method: as §1, §2

[14] = system: Ps. Aeruginosa ATCC 27853; test: MIC in Nutrient Broth No. 2; assay type: cell-based; details: Nutrient Broth No. 2
Method: as §1, §2

[15] = system: Salmonella; test: MIC in Nutrient Broth No. 2; assay type: cell-based; details: 11 strains, Nutrient Broth No. 2
Method: as §1, §2

[16] = system: Serratia marcescens OCC 217; test: MIC in Nutrient Broth No. 2; assay type: cell-based; details: Nutrient Broth No. 2
Method: as §1, §2

[17] = system: Strep. pneumoniae ATCC 6305; test: MIC in Nutrient Broth No. 2; assay type: cell-based, Streptococcus pneumoniae; details: Nutrient Broth No. 2
Method: as §1, §2

[18] = system: S. epidermidis; test: MIC in Nutrient Agar; assay type: cell-based, Staphylococcus epidermidis; details: 3 strains; Nutrient Agar containing 0.1 μg/ml of inducer; 37° C., 24 hours
Method: (§3) The triclosan-glycosides were added to Nutrient Agar (Oxoid CM0003; Thermofisher Scientific) and organisms were transferred onto the plates surface using a multi-point inoculation device (Oxoid Cathra, Thermofisher Scientific). The latter is essentially a metal plate containing a number of needles. Each needle tip (usually 36 per plate) dips into an organism suspension (in phosphate buffered saline; PBS) and the needles are then moved over the agar plate and lowered onto its surface. In this way the growth of colonies of up to 36 different organisms can be observed on one plate.
(§4) Nutrient Agar No. 2 was prepared according to the manufacturers instructions, autoclaved and cooled to 50° C. Test compounds were then added as filter sterilised solutions (50:50 deionised water:ethanol), to give final concentrations from 256 μg/ml to 0 μg/ml in doubling dilutions. […] The mixtures were swirled then four plates (25 ml molten agar) were poured for each concentration. Plates were dried in a laminar flow cabinet then inoculated with overnight cultures of organisms that had been decimally diluted twice in sterile saline solution (approximately 10^7 cfu/ml) using a multi-point inoculator. Plates were then incubated at 37° C. for 24 hours. MICs were determined as the concentration at which no growth was observed.

[19] = system: S. haemolyticus; test: MIC in Nutrient Agar; assay type: cell-based, Staphylococcus haemolyticus; details: Nutrient Agar containing 0.1 μg/ml of inducer; 37° C., 24 hours
Method: as §3, §4

[20] = system: S. saprophyticus; test: MIC in Nutrient Agar; assay type: cell-based, Staphylococcus saprophyticus; details: Nutrient Agar containing 0.1 μg/ml of inducer; 37° C., 24 hours
Method: as §3, §4

[21] = system: Str. agalactiae; test: MIC in Nutrient Agar; assay type: cell-based, Streptococcus agalactiae; details: Nutrient Agar containing 0.1 μg/ml of inducer; 37° C., 24 hours
Method: as §3, §4

[22] = system: Str. pneumoniae; test: MIC in Nutrient Agar; assay type: cell-based, Streptococcus pneumoniae; details: Nutrient Agar containing 0.1 μg/ml of inducer; 37° C., 24 hours
Method: as §3, §4

[23] = system: Str. pyogenes; test: MIC in Nutrient Agar; assay type: cell-based, Streptococcus pyogenes; details: Nutrient Agar containing 0.1 μg/ml of inducer; 37° C., 24 hours
Method: as §3, §4

[24] = system: Str. viridans; test: MIC in Nutrient Agar; assay type: cell-based, Streptococcus viridans; details: Nutrient Agar containing 0.1 μg/ml of inducer; 37° C., 24 hours
Method: as §3, §4

[25] = system: C. freundii; test: MIC in Nutrient Agar; assay type: cell-based, Citrobacter freundii; details: Nutrient Agar containing 0.1 μg/ml of inducer; 37° C., 24 hours
Method: as §3, §4

[26] = system: Cr. sakazakii; test: MIC in Nutrient Agar; assay type: cell-based, Cronobacter sakazakii; details: Nutrient Agar containing 0.1 μg/ml of inducer; 37° C., 24 hours
Method: as §3, §4

[27] = system: Ent. cloacae; test: MIC in Nutrient Agar; assay type: cell-based, Enterobacter cloacae; details: Nutrient Agar containing 0.1 μg/ml of inducer; 37° C., 24 hours
Method: as §3, §4

[28] = system: E. hermanii; test: MIC in Nutrient Agar; assay type: cell-based, Escherichia hermanii; details: Nutrient Agar containing 0.1 μg/ml of inducer; 37° C., 24 hours
Method: as §3, §4

[29] = system: Bacillus cereus; test: MIC in Nutrient Agar; assay type: cell-based; details: Nutrient Agar containing 0.1 μg/ml of inducer; 37° C., 24 hours
Method: as §3, §4

[30] = system: Bacillus subtilis; test: MIC in Nutrient Agar; assay type: cell-based; details: Nutrient Agar containing 0.1 μg/ml of inducer; 37° C., 24 hours
Method: as §3, §4

[31] = system: Hafnia alvei; test: MIC in Nutrient Agar; assay type: cell-based; details: Nutrient Agar containing 0.1 μg/ml of inducer; 37° C., 24 hours
Method: as §3, §4

[32] = system: Ps. aeruginosa; test: MIC in Nutrient Agar; assay type: cell-based; details: Nutrient Agar containing 0.1 μg/ml of inducer; 37° C., 24 hours
Method: as §3, §4

[33] = system: Kleb. pneumoniae; test: MIC in Nutrient Agar; assay type: cell-based, Klebsiella pneumoniae; details: Nutrient Agar containing 0.1 μg/ml of inducer; 37° C., 24 hours
Method: as §3, §4

[34] = system: Ser. marcescens; test: MIC in Nutrient Agar; assay type: cell-based, Serratia marcescens; details: Nutrient Agar containing 0.1 μg/ml of inducer; 37° C., 24 hours
Method: as §3, §4

Measured: MIC

OC[C@H]1O[C@H](Oc2cc(Cl)ccc2Oc2ccc(Cl)cc2Cl)[C@H](O)[C@@H](O)[C@@H]1O [α-D-Glucoside, triclosan-α-D-glucopyranoside]
8 µg/mL: [7]; without inducer
256 µg/mL: [3]; with inducer 100 μg/ml | [3]; without inducer | [9]; with inducer 100 μg/ml | [9]; without inducer
1 to 4 µg/mL: [10]; with inducer 100 μg/ml | [15]; with inducer 100 μg/ml
2 to 8 µg/mL: [10]; without inducer | [15]; without inducer
16 µg/mL: [17]; with inducer 100 μg/ml | [30]
1 µg/mL: [1]; with inducer 100 μg/ml | [1]; without inducer | [2]; with inducer 100 μg/ml | [2]; without inducer | [11]; with inducer 100 μg/ml | [11]; without inducer | [19] | [27] | [28]
0.5 µg/mL: [31] | [33]
2 µg/mL: [12]; with inducer 100 μg/ml | [12]; without inducer
64 µg/mL: [23] | [24] | [29]
0.5 to 1 µg/mL: [18]
4 µg/mL: [6]; with inducer 100 μg/ml | [6]; without inducer | [7]; with inducer 100 μg/ml | [13]; with inducer 100 μg/ml | [13]; without inducer | [20] | [25] | [26]
128 µg/mL: [4]; with inducer 100 μg/ml | [4]; without inducer | [8]; with inducer 100 μg/ml | [8]; without inducer | [21]
32 µg/mL: [5]; with inducer 100 μg/ml | [5]; without inducer | [17]; without inducer | [22]
>256 µg/mL: [14]; with inducer 100 μg/ml | [14]; without inducer | [16]; with inducer 100 μg/ml | [16]; without inducer | [32] | [34]

OC[C@H]1O[C@H](Oc2cc(Cl)ccc2Oc2ccc(Cl)cc2Cl)[C@@H](O)[C@@H](O)[C@@H]1O [α-D-Mannoside, triclosan-α-D-mannopyranoside]
16 to 64 µg/mL: [15]; without inducer
8 to 32 µg/mL: [15]; with inducer 100 μg/ml
16 µg/mL: [1]; without inducer | [12]; without inducer | [27] | [28] | [33]
4 to 64 µg/mL: [10]; without inducer
128 µg/mL: [5]; without inducer | [17]; with inducer 100 μg/ml | [21] | [24] | [29]
4 µg/mL: [2]; without inducer | [11]; with inducer 100 μg/ml | [11]; without inducer | [31]
64 µg/mL: [6]; with inducer 100 μg/ml | [6]; without inducer | [17]; without inducer | [22] | [23] | [25] | [26]
4 to 32 µg/mL: [10]; with inducer 100 μg/ml
256 µg/mL: [4]; with inducer 100 μg/ml | [4]; without inducer | [5]; with inducer 100 μg/ml | [8]; with inducer 100 μg/ml | [8]; without inducer | [9]; with inducer 100 μg/ml | [9]; without inducer | [30]
8 µg/mL: [1]; with inducer 100 μg/ml | [12]; with inducer 100 μg/ml | [18] | [19]
2 µg/mL: [2]; with inducer 100 μg/ml
>256 µg/mL: [3]; with inducer 100 μg/ml | [3]; without inducer | [14]; with inducer 100 μg/ml | [14]; without inducer | [16]; with inducer 100 μg/ml | [16]; without inducer | [32] | [34]
32 µg/mL: [7]; with inducer 100 μg/ml | [7]; without inducer | [13]; with inducer 100 μg/ml | [13]; without inducer | [20]

— patent US9908912B2, “Triclosan derivatives and uses thereof” (priority 2012, dated 2018)
